Experimental data taken from patent US20180002319A1, “MACROCYCLIC PICOLINAMIDE COMPOUNDS WITH FUNGICIDAL ACTIVITY” (DOW AGROSCIENCES LLC, priority 2014, published 2018).
Read-outs that look alike come from different tables or passages of the source.

Tests used:
Type in all cases: in vivo
[1] = test system: Zymoseptoria tritici; assay: Leaf Blotch of Wheat (SEPTTR) fungicidal activity; settings: wheat leaf blotch; for pest or weed control at 100 ppm: High Volume application; for pest or weed control at 121.5 g/ha: Low Volume application, 121.5 g/H
Summary of the method: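 Wheat seedlings (Yuma, first leaf emerged) were sprayed to run-off with compound in acetone/water containing Triton X-100 and inoculated with Z. tritici spores before or after treatment. Percent disease control comes from 0–100% severity on treated versus untreated plants.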

[2] = test system: Leptosphaeria nodorum; assay: Wheat Glume Blotch (LEPTNO) fungicidal activity; settings: Parastagonospora nodorum, 24 h, 1DP (1 Day Protectant), read-out: LEPTNO Disease Control
Procedure: Technical grades of materials were dissolved in acetone, which were then mixed with nine volumes of H2O containing 110 ppm Triton X-100. The fungicide solutions were applied onto wheat seedlings using an automated booth sprayer to run-off. All sprayed plants were allowed to air dry prior to further handling. All fungicides were evaluated using the aforementioned method for their activity vs. all target diseases, unless stated otherwise. Wheat leaf blotch and brown rust activity were also evaluated using track spray applications, in which case the fungicides were formulated as EC formulations, containing 0.1% Trycol 5941 in the spray solutions. Wheat plants (variety Yuma) were grown from seed in a greenhouse in 50% mineral soil/50% soil-less Metro mix until the first leaf was fully emerged, with 7-10 seedlings per pot. These plants were inoculated with an aqueous spore suspension of Zymoseptoria tritici either prior to or after fungicide treatments. After inoculation the plants were kept in 100% relative humidity (one day in a dark dew chamber followed by two to three days in a lighted dew chamber at 20° C.) to permit spores to germinate and infect the leaf. The plants were then transferred to a greenhouse set at 20° C. for disease to develop. When disease symptoms were fully expressed on the 1st leaves of untreated plants, infection levels were assessed on a scale of 0 to 100 percent disease severity. Percent disease control was calculated using the ratio of disease severity on treated plants relative to untreated plants. Example C: Evaluation of Fungicidal Activity: Wheat Glume Blotch (Leptosphaeria nodorum; Bayer Code […]) Wheat plants (variety Yuma) were grown from seed in a greenhouse in 50% mineral soil/50% soil-less Metro mix until the first leaf was fully emerged, with 7-10 seedlings per pot. These plants were inoculated with an aqueous spore suspension of Leptosphaeria nodorum 24 hr after fungicide treatments. After inoculation the plants were kept in 100% relative humidity (one day in a dark dew chamber followed by two days in a lighted dew chamber at 20° C.) to permit spores to germinate and infect the leaf. The plants were then transferred to a greenhouse set at 20° C. for disease to develop. Fungicide formulation, application and disease assessment followed the procedures as described in the Example A.

[3] = test system: Blumeria graminis f.sp. hordei; assay: Barley Powdery Mildew (ERYSGH) fungicidal activity; settings: 24 h, 1DP (1 Day Protectant), read-out: ERYSGH Disease Control
Procedure: Technical grades of materials were dissolved in acetone, which were then mixed with nine volumes of H2O containing 110 ppm Triton X-100. The fungicide solutions were applied onto wheat seedlings using an automated booth sprayer to run-off. All sprayed plants were allowed to air dry prior to further handling. All fungicides were evaluated using the aforementioned method for their activity vs. all target diseases, unless stated otherwise. Wheat leaf blotch and brown rust activity were also evaluated using track spray applications, in which case the fungicides were formulated as EC formulations, containing 0.1% Trycol 5941 in the spray solutions. Wheat plants (variety Yuma) were grown from seed in a greenhouse in 50% mineral soil/50% soil-less Metro mix until the first leaf was fully emerged, with 7-10 seedlings per pot. These plants were inoculated with an aqueous spore suspension of Zymoseptoria tritici either prior to or after fungicide treatments. After inoculation the plants were kept in 100% relative humidity (one day in a dark dew chamber followed by two to three days in a lighted dew chamber at 20° C.) to permit spores to germinate and infect the leaf. The plants were then transferred to a greenhouse set at 20° C. for disease to develop. When disease symptoms were fully expressed on the 1st leaves of untreated plants, infection levels were assessed on a scale of 0 to 100 percent disease severity. Percent disease control was calculated using the ratio of disease severity on treated plants relative to untreated plants. Example J: Evaluation of Fungicidal Activity: Barley Powdery Mildew (Blumeria graminis f.sp. hordei; Synonym: Erysiphe graminis f.sp. hordei; Bayer Code […]) Barley seedlings (variety Harrington) were propagated in soil-less Metro mix, with each pot having 8 to 12 plants, and used in the test when first leaf was fully emerged. Test plants were inoculated by dusting with infected stock plants 24 hr after fungicide treatments. After inoculation the plants were kept in a greenhouse set at 20° C. for disease to develop. Fungicide formulation, application and disease assessment on the sprayed leaves followed the procedures as described in the Example A.

[4] = 24 h, 1 day protectant, read-out: SEPTTR disease control, 1DP (1 Day Protectant)
[5] = 72 h, 3 day curative, read-out: SEPTTR disease control, 3DC (3 Day Curative)

Row | SMILES | pest or weed control at 100 ppm [1, 4] [%] | pest or weed control at 100 ppm [1, 5] [%] | pest or weed control at 100 ppm [2] [%] | pest or weed control at 100 ppm [3] [%] | pest or weed control at 121.5 g/ha [1, 4] [%] | pest or weed control at 121.5 g/ha [1, 5] [%]
1 | CCCCO[C@H]1CCOC[C@H](NC(=O)c2nccc(OC)c2OCOC(C)=O)C(=O)O[C@@H](C)[C@@H]1OC(=O)C1CC1 [Compound 5] | > 80 | < 80 | > 80 |  |  | 
2 | COc1ccnc(C(=O)N[C@H]2COCC[C@@H](OCC(C)C)[C@@H](OCC(C)C)[C@H](C)OC2=O)c1OCOC(C)=O [Compound 6] | > 80 |  | > 80 |  |  | 
3 | COc1ccnc(C(=O)N[C@H]2CCCC[C@H](Oc3ccccc3)[C@@H](Oc3ccccc3)[C@H](C)OC2=O)c1OCOC(C)=O [Compound 19] | > 80 | > 80 |  | < 80 | > 80 | > 80
4 | COc1ccnc(C(=O)N[C@H]2COCC[C@H](Cc3ccccc3)[C@@H](OCC(C)C)[C@H](C)OC2=O)c1OC(C)=O [Compound 21] |  |  | > 80 | < 80 | < 80 | > 80
5 | CCCCCO[C@H]1[C@H](C)OC(=O)[C@@H](NC(=O)c2nccc(OC)c2OCOC(C)=O)CCCC[C@@H]1Oc1ccccc1 [Compound 17] | > 80 | > 80 |  | < 80 |  | 
6 | CCCCO[C@H]1CCOC[C@H](NC(=O)c2nccc(OC)c2OCOC(C)=O)C(=O)O[C@@H](C)[C@@H]1OC(=O)c1ccccc1 [Compound 4] | > 80 | < 80 | > 80 | < 80 | < 80 | 
7 | COc1ccnc(C(=O)N[C@H]2COCC[C@H](Cc3ccccc3)[C@@H](OCC(C)C)[C@H](C)OC2=O)c1OCOC(C)=O [Compound 20] |  |  | > 80 | < 80 | < 80 | > 80
8 | COc1ccnc(C(=O)N[C@H]2CCOC[C@H](Oc3ccccc3)[C@@H](Oc3ccccc3)[C@H](C)OC2=O)c1OCOC(C)=O [Compound 37] |  |  | > 80 |  | > 80 | > 80
9 | CCCO[C@H]1[C@H](C)OC(=O)[C@@H](NC(=O)c2nccc(OC)c2OCOC(C)=O)CCCC[C@@H]1Oc1ccccc1 [Compound 18] | > 80 | > 80 |  | < 80 |  | 
10 | CCCCO[C@H]1CCOC[C@H](NC(=O)c2nccc(OC)c2OCOC(C)=O)C(=O)O[C@@H](C)[C@@H]1OC(=O)C(C)C [Compound 3] | > 80 | < 80 | > 80 | < 80 |  | 
11 | CCCCO[C@H]1CCOC[C@H](NC(=O)c2nccc(OC)c2OCOC(C)=O)C(=O)O[C@@H](C)[C@@H]1OCc1ccccc1 [Compound 2] | > 80 | < 80 | > 80 | < 80 | < 80 | 
